The text below walks through data of ChEMBL document CHEMBL4411318, “Discovery of a Series of 2'-α-Fluoro,2'-β-bromo-ribonucleosides and Their Phosphoramidate Prodrugs as Potent Pan-Genotypic Inhibitors of Hepatitis C Virus” (J Med Chem, 2019).

Series [1] deals with HepG2. Kind of series: Mitochondrial toxicity in human HepG2 cells 10 uM followed by medium plus drugs replenishment every 3 to 4 days for 14 days relative to control. It counts as cell-based. The following applies: hepg2, 336 h.
Series [2] has as its system nuclear ribosomal-DNA level. Description: in vitro. The settings on record: human, HepG2 cells.
The test system of series [3] is cytochrome c oxidase subunit 2 DNA level. Kind of series: Mitochondrial toxicity in human HepG2 cells assessed as inhibition of cytochrome c oxidase subunit 2 DNA level followed by medium plus drugs replenishment every 3 to 4 days for 14 days relative to control. Format: cell-based.
Series [4] relates to nuclear ribosomal-DNA level. Description: in vitro. The settings on record: human, HepG2 cells. The source holds these as a separate data set.
In series [5] the test system is cytochrome c oxidase subunit 2 DNA level. Description: Mitochondrial toxicity in human HepG2 cells assessed as inhibition of cytochrome c oxidase subunit 2 DNA level at 10 uM followed by medium plus drugs replenishment every 3 to 4 days for 14 days relative to control. Format: cell-based.
A short description of series [6]: Cytotoxicity in human HepaRG cells assessed as reduction in cell viability incubated for 14 days by CellTiter-Glo assay. It counts as cell-based. Background: ATP-based viability assays read luminescence as a measure of living cells.
The target of series [7] is RNA-directed RNA polymerase (Hepacivirus hominis) (UniProt O39930). Description: Inhibition of NS5B polymerase in HCV genotype 1b/4a chimeric replicon infected in human HuH7 replicon cells after 5 days by RT-PCR analysis. It counts as cell-based. (In general: A replicon is a self-replicating genome or part of one, used to study replication in cells.)
Chain of RNA-directed RNA polymerase (Hepacivirus hominis) (O39930 1-591): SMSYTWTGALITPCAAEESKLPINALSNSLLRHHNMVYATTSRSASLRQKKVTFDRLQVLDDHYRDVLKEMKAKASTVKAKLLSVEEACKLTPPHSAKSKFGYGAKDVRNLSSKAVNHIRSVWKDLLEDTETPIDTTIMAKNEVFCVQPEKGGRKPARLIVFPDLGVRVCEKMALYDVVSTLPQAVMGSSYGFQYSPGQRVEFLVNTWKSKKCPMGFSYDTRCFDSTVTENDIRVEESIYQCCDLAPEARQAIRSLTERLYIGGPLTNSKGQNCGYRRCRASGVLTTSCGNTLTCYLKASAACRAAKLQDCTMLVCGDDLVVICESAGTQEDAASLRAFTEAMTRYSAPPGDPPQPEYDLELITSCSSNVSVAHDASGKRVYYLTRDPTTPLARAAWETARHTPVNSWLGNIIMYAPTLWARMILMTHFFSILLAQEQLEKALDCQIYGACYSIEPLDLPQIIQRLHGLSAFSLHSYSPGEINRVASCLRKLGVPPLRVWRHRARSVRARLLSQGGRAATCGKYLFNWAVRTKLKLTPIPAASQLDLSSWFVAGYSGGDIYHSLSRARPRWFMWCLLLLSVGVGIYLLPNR
The nature of series [8]: Cytotoxicity against human HuH7 cells assessed reduction in cell viability after 3 to 5 days by MTT assay. It counts as cell-based, Huh-7. (Tetrazolium assays rely on reduction of a dye to a coloured formazan, in cell work by metabolically active cells.)
For series [9], the system named is HepG2. Kind of series: Mitochondrial toxicity in human HepG2 cells assessed as lactic acid production at 50 uM followed by medium plus drugs replenishment every 3 to 4 days for 14 days relative to control. It counts as cell-based. The following applies: hepg2, 336 h.
The subject of series [10] is HepG2. Description: Mitochondrial toxicity in human HepG2 cells assessed as lactic acid production at 12.5 uM followed by medium plus drugs replenishment every 3 to 4 days for 14 days relative to control. It counts as cell-based. The settings on record: hepg2, 336 h.
Series [11] concerns the target RNA-directed RNA polymerase (Hepacivirus hominis) (UniProt O39930). The settings on record: genotype 1b/3a.
Description: Inhibition of NS5B polymerase in HCV genotype 1b/3a chimeric replicon infected in human HuH7 replicon cells after 5 days by RT-PCR analysis
Series [12] relates to cytochrome c oxidase subunit 2 DNA level. Kind of series: Mitochondrial toxicity in human HepG2 cells assessed as inhibition of cytochrome c oxidase subunit 2 DNA level at 50 uM followed by medium plus drugs replenishment every 3 to 4 days for 14 days relative to control. It counts as cell-based.
Series [13] concerns the target RNA-directed RNA polymerase (Hepacivirus hominis) (UniProt O39930). Kind of series: Inhibition of NS5B polymerase in HCV genotype 2a infected in human HuH7 replicon cells after 5 days by RT-PCR analysis. Format: cell-based. The settings on record: Hepatitis C virus subtype 2a.
Series [14] in a line: Cardiotoxicity against human embryonic stem cell-induced ventricular cardiomyocytes administered on day 7 and measured on day 10 after 30 mins incubation by CellTiter Glo assay. It counts as toxicity, cell-based, Cardiac muscle cell.
Series [15] in a line: Drug metabolism in human primary hepatocytes assessed as Tmax for NTP formation at 10 uM after 2 to 48 hrs by LC-MS/MS analysis. Format: ADME, cell-based, Hepatocyte.
In series [16] the test system is cytochrome c oxidase subunit 2 DNA level. Kind of series: Mitochondrial toxicity in human HepG2 cells assessed as inhibition of cytochrome c oxidase subunit 2 DNA level at 12.5 uM followed by medium plus drugs replenishment every 3 to 4 days for 14 days relative to control. Format: cell-based.
Series [17] in a line: (§1) Cytotoxicity against human PBMC assessed reduction in cell viability after 5 days by MTT assay. The following applies: PBMC. Format: cell-based.
Series [18] deals with nuclear ribosomal-DNA level. Kind of series: Mitochondrial toxicity in human HepG2 cells assessed as inhibition of nuclear ribosomal-DNA level at 12.5 uM followed by medium plus drugs replenishment every 3 to 4 days for 14 days relative to control. Format: cell-based.
The target of series [19] is RNA-directed RNA polymerase (Hepacivirus hominis) (UniProt O39930). The settings on record: Hepatitis C virus subtype 1b.
Description: Inhibition of NS5B polymerase in wild type HCV genotype 1b infected in human Huh7 replicon cells after 5 days by RT-PCR assay
The nature of series [20]: (§2) Cytotoxicity against human CCRF-CEM assessed reduction in cell viability after 4 days by MTT assay. It counts as cell-based. The settings on record: CCRF-CEM cells.
Series [21] in a line: Nephrotoxicity in human HK2 cells after 72 hrs by Hoechst 33342/HCS live/dead green dye-based assay. It counts as toxicity, cell-based, HK-2.
For series [22], the system named is nuclear ribosomal-DNA level. Description: Mitochondrial toxicity in human HepG2 cells assessed as inhibition of nuclear ribosomal-DNA level at 50 uM followed by medium plus drugs replenishment every 3 to 4 days for 14 days relative to control. Format: cell-based.
The nature of series [23]: Stability in simulated intestinal fluid after 24 hrs by LC/MS/MS analysis. The following applies: simulated gi fluid. Format: ADME.
The nature of series [24]: Drug metabolism in human HuH7 cells assessed as Tmax for NTP formation at 10 uM after 2 to 48 hrs by LC-MS/MS analysis. It counts as ADME, cell-based. The following applies: huh-7, 10 µM.
Series [25] is described as follows: in vitro. The settings on record: human, liver microsomes.
Description: Stability in human liver microsomes assessed as compound remaining in absence of NADPH regenerating system after 60 mins by LC/MS/MS analysis
Series [26] is described as follows: Drug uptake in Beagle dog liver at 10 mg/kg, po measured up to 4 hrs by LC-MS/MS analysis. The settings on record: in vivo, BLD = below limit of detection.
A short description of series [27]: Prodrug activation in Beagle dog liver assessed as assessed as formation of triphosphate form parent nucleoside at 10 mg/kg, po measured at 4 hrs by LC-MS/MS analysis. The settings on record: in vivo.
Series [28] in a line: Mitochondrial toxicity in human HepG2 cells assessed as reduction in cell viability after 14 days in presence of glucose supplemented media by ATP depletion assay. Format: cell-based.
Series [29] addresses RNA-directed RNA polymerase (Hepacivirus hominis) (UniProt O39930). Description: Inhibition of NS5B polymerase in HCV genotype 1b/5a chimeric replicon infected in human HuH7 replicon cells after 5 days by RT-PCR analysis. Format: cell-based.
Series [30] in a line: in vitro. The settings on record: human, liver microsomes. This is another data set of the same source.
Description: Intrinsic clearance in human liver measured from intrinsic clearance in human liver microsomes in presence of NADPH regenerating system by LC/MS/MS analysis
Series [31] can be described thus: Mitochondrial toxicity in human HepG2 cells assessed as reduction in cell viability after 3 days in presence of glucose supplemented media by ATP depletion assay. It counts as cell-based.
Series [32] is described as follows: Mitochondrial toxicity in human HepG2 cells assessed as reduction in cell viability after 3 days in presence of galactose supplemented media by ATP depletion assay. Format: cell-based.
The subject of series [33] is Bone marrow cell. Description: Cytotoxicity against human bone marrow cells assessed as inhibition of colony-forming unit-granulocyte after 14 days by FACS analysis. The following applies: 336 h. It counts as cell-based.
Series [34] in a line: in vitro. The settings on record: human, liver microsomes. The source holds these as a separate data set.
Description: Half life in human liver microsomes in presence of NADPH regenerating system by LC/MS/MS analysis
The subject of series [35] is HepG2. Kind of series: Mitochondrial toxicity in human HepG2 cells assessed as lactic acid production at 25 uM followed by medium plus drugs replenishment every 3 to 4 days for 14 days relative to control. Format: cell-based. The following applies: hepg2, 336 h.
In series [36] the test system is Bone marrow cell. Kind of series: Cytotoxicity against human bone marrow cells assessed as inhibition of burst forming unit-erythroid after 14 days by FACS analysis. It counts as cell-based. The following applies: 336 h.
A short description of series [37]: Stability in human plasma assessed as compound remaining at 2 uM after 120 mins by LC/MS/MS analysis. Format: ADME, cell-free. The settings on record: read-out: Stability.
Series [38] in a line: Half life in human intestinal microsomes by LC/MS/MS analysis. Format: ADME, Intestine, Microsome.
The nature of series [39]: Mitochondrial toxicity in human HepG2 cells assessed as reduction in cell viability after 14 days in presence of galactose supplemented media by ATP depletion assay. It counts as cell-based.
The nature of series [40]: in vitro. The following applies: human, liver microsomes. The source holds these as a separate data set.
Description: Intrinsic clearance in human liver microsomes in presence of NADPH regenerating system by LC/MS/MS analysis
For series [41], the system named is nuclear ribosomal-DNA level. Kind of series: Mitochondrial toxicity in human HepG2 cells assessed as inhibition of nuclear ribosomal-DNA level at 25 uM followed by medium plus drugs replenishment every 3 to 4 days for 14 days relative to control. Format: cell-based.
Series [42] concerns PBMC. The series is described as §1. Format: cell-based. The settings on record: pbmc, 120 h.
Series [43] has as its system CCRF-CEM. The description is as §2. Format: cell-based. The settings on record: ccrf-cem, 96 h.

Molecules are shown by their SMILES. Bounds are passed on as bounds.

As for `Nc1ccn([C@H]2CC[C@@H](CO)O2)c(=O)n1` [ZALCITABINE], the Activity in series [1] was 200%. Further, the inhibition at 336 h, 10 µM is 50% in series [2] and 84% in series [5]. Also, the IC50 at 14 days in series [3] and in series [4] was less than 10 µM in each case.

On to `CC(C)OC(=O)[C@H](C)N[P@](=O)(OC[C@H]1O[C@@H](n2ccc(=O)[nH]c2=O)[C@](C)(F)[C@@H]1O)Oc1ccccc1` [SOFOSBUVIR], for which, in [6], the CC50 at 336 h was 44 µM. Also, the EC90 in series [7] is 0.15 µM; in series [11] it was 0.37 µM; in [13] it was 0.13 µM; in [19] it was 0.15 to 0.9 µM. Besides, the CC50 in series [8] was more than 100 µM. Besides, the IC50 at 14 days in series [3] is more than 50 µM; in [4], 45 µM. For the same compound, the Activity in [9] is 180%; in [10] it was 79%. For the same compound, the inhibition at 336 h, 50 µM in [12] is 44%; in series [22], 58%. The compound further gave a CC50 at 0.5 h in series [14] of more than 100 µM. The Tmax in [15] worked out at 12 h. Also, the inhibition at 336 h, 12.5 µM was found to be 6.7% in [16] and 3.1% in series [18]. Besides, the CC50 at 120 h in series [17] is more than 100 µM. In addition, in [20], the CC50 at 96 h was more than 100 µM. For the same compound, the CC50 at 72 h in [21] was more than 300 µM.

For `CC(C)OC(=O)[C@H](C)N[P@](=O)(OC[C@H]1O[C@@H](n2ccc(=O)[nH]c2=O)[C@@](F)(Br)[C@@H]1O)Oc1ccccc1` (single isomer, unassigned), in series [23], the Stability result is listed as “Stable”. Further, the EC90 in series [7] is 0.13 µM; in series [13], 0.077 µM; in series [29] it was 0.083 µM; in [19], 0.074 to 0.28 µM. Also, the Tmax in series [24] amounted to 12 h. In series [25], the remaining at 1 h is 3.7%. In addition, the CC50 in series [8] was more than 10 µM. Besides, the Drug uptake entry in series [26] is “Bld”. In addition, the Activity in series [9] is listed as 220%; in series [10], 90%; in series [35], 120%. Further, the Drug metabolism in series [27] is 20130 ng/mL. Further, the inhibition at 336 h, 50 µM in series [12] turned out to be 58%; in series [22] it was 72%. Further, the figures for the IC50 at 14 days in series [28], in series [4] and in [39] were more than 100 µM, 32 µM and more than 100 µM, respectively. For the same compound, the CLint scaled in series [30] stood at 63.2 mL/min/kg. Also, the IC50 at 3 days in [31], in series [32] and in series [14] was more than 100 µM each time. Moreover, the IC50 in [33] stood at 76 µM; in series [36], 72 µM. In addition, the half-life in series [34] is 0.328 h; in series [38] it was more than 2.42 h. In addition, the figures for the inhibition at 336 h, 12.5 µM in [16] and in [18] were 23% and 11%, respectively. The compound also gave a CC50 at 120 h in [17] of more than 100 µM. Also, in series [37], the remaining at 2 h, 2 µM was found to be 90%. The compound further gave a microsomal CLint in series [40] of 70.2 µL/min/mg. Moreover, the inhibition at 336 h, 25 µM in series [41] was determined as 39%. This compound displayed a CC50 at 96 h in series [20] of more than 100 µM.

As for `C[C@@]1(O)[C@H](O)[C@@H](CO)O[C@H]1n1ccc(N)nc1=O`, the CC50 was more than 100 µM in series [8], 60 µM in series [42] and 22 µM in series [43]. In addition, the EC90 in series [19] is 9.9 µM.

Usually inhibition stands for the change of the read-out against control, counted positive when it falls. One may read the IC50 as the concentration that inhibits the measured activity by half. As a reminder, the CC50 is the concentration giving 50% cytotoxicity. Usually EC90 stands for the concentration at which the effect reaches the 90% level. The low end stands for an effect from little substance, the high end for a need for much substance. The Tmax is the time at which the peak concentration occurs. For orientation: CLint scaled means a measure of how fast metabolising enzymes remove a compound, apart from limits set by blood flow. Read a low CLint scaled as slow turnover. A word on the half-life: it is how long it takes for the measured level to halve. The low end stands for rapid decline, the high end for slow decline. What is called microsomal CLint is the rate of metabolic loss divided by the concentration. A lower microsomal CLint goes with slow turnover.
